Experiment [1] addresses T1, recombinant human TRPM8 stably expressed in HEK293 cells (hTRPM8) (Homo sapiens, UniProt Q7Z2W7).
T1 construct: expressed in transfected cells
As to the kind of experiment: Ca2+ microfluorimetry screen for agonist/antagonist activity in hTRPM8-HEK293 cells. The class given is cell-based. The source says:
We first evaluated the series of compounds 20–29 synthesized using the Passerini‐Adamantane reaction. All compounds were screened for channel agonism and antagonism on recombinant human TRPM8 stably expressed in HEK293 cells (hTRPM8‐HEK293) with Ca^2+ microfluorimetry. […] Compound‐induced TRPM8‐mediated Ca^2+ influx was confirmed using untransfected HEK293 cells and the channel blocker AMTB. […] The concentration of compounds to reach half of channel activation (EC50) or to block half‐channel activity evoked by WS‐12 (IC50) are reported in Table 1, along with the percentage of maximal activation or blockade (Efficacy).
Assays were conducted to assess the channel activity of the recombinant hTRPM8 stably expressed in HEK‐293 cells. HEK‐293‐hTRPM8 cells were cultured in a monolayer using a DMEM GlutaMax with 10% FBS and 1% P/S and maintained at 37 °C in 5% CO2. For experiments, cells were prepared and seeded at the indicated densities. To evaluate compound effectiveness against hTRPM8 activity, microfluorometry‐based calcium flux assays were performed using Fluo‐4 NW Ca^2+ dye and fluorescence detection. HEK cell lines expressing hTRPM8 were seeded in 96‐well plates and incubated with the dye‐loading solution. Ion channel activity was measured using a plate reader, and fluorescence intensity changes were recorded following the addition of vehicle, compound at varying concentrations, and antagonist (10 μM AMTB). Data analysis included calculating the Z‐factor for each assay and normalizing compound effects to […]. Data were analyzed to determine the concentration exerting half‐maximal inhibition (IC50) or activation (EC50) of agonist‐induced calcium elevation, using GRAPHPAD PRISM8® software (Boston, MA, USA). All experiments were conducted in triplicate, and results are presented as mean ± standard deviation.

The target of experiment [2] is T2, neuronal TRPM8 channels (mTRPM8) in dorsal root ganglion neurons (Mus musculus, UniProt Q8R4D5).
T2 construct: neuronal TRPM8 channels expressed in murine primary nociceptor cultures; endogenous in cells; host or cells: primary cultures of mouse dorsal root ganglion neurons
As to the kind of experiment: Patch-clamp of WS-12-evoked currents in primary DRG nociceptor cultures. It counts as cell-based, murine. To be noted: WS-12 evoked current, −60 mV, N = 3, n = 8; read-out: IC50 of mTRPM8 current blockade in DRG neurons. The source says: To examine the in vivo activity of compound 23, we first investigated its inhibitory potency on neuronal TRPM8 channels expressed in murine primary nociceptor cultures by patch‐clamp. […] Alternatively, it could also be due to distinct gating mechanisms of both orthologs or the influence of the neuronal environment.
Primary cultures of neonatal dorsal root ganglia were used for multielectrode array (MEA) and patch‐clamp experiments following established methodologies previously described. Neonatal dorsal root ganglia (DRGs) were obtained from Wistar rats (3–5 days old) and were isolated and digested with 0.25% (w/v) collagenase (type IA) in DMEM GlutaMax with 1% (v/v) penicillin/streptomycin (P/S) solution for 1 h at 37 °C in a 5% CO2 Thermo Scientific incubator. Following digestion, DRGs were mechanically dissociated and passed through a 100 μm cell strainer to obtain single‐cell suspensions. Suspensions were washed with DMEM GlutaMax with 10% (v/v) fetal bovine serum (FBS) and 1% (v/v) penicillin/streptomycin (P/S). Cells were then seeded in microelectrode array chambers coated with poly‐L‐lysine (8.3 μg·mL^−1) and laminin (5 μg·mL^−1). After 1 h, the medium was replaced with DMEM GlutaMax, 10% (v/v) FBS, and 1% (v/v) P/S, supplemented with mouse 2.5S NGF 50 ng·mL^−1 and 1.25 μg·mL^−1 cytosine arabinoside. […]

The source of these data is article PMC12220852, “An adamantane‐based ligand as a novel chemical tool for thermosensory TRPM8 channel therapeutic modulation” (The Febs Journal, 2025).

Structures are written as SMILES.

T1 sequence (Q7Z2W7 whole entry): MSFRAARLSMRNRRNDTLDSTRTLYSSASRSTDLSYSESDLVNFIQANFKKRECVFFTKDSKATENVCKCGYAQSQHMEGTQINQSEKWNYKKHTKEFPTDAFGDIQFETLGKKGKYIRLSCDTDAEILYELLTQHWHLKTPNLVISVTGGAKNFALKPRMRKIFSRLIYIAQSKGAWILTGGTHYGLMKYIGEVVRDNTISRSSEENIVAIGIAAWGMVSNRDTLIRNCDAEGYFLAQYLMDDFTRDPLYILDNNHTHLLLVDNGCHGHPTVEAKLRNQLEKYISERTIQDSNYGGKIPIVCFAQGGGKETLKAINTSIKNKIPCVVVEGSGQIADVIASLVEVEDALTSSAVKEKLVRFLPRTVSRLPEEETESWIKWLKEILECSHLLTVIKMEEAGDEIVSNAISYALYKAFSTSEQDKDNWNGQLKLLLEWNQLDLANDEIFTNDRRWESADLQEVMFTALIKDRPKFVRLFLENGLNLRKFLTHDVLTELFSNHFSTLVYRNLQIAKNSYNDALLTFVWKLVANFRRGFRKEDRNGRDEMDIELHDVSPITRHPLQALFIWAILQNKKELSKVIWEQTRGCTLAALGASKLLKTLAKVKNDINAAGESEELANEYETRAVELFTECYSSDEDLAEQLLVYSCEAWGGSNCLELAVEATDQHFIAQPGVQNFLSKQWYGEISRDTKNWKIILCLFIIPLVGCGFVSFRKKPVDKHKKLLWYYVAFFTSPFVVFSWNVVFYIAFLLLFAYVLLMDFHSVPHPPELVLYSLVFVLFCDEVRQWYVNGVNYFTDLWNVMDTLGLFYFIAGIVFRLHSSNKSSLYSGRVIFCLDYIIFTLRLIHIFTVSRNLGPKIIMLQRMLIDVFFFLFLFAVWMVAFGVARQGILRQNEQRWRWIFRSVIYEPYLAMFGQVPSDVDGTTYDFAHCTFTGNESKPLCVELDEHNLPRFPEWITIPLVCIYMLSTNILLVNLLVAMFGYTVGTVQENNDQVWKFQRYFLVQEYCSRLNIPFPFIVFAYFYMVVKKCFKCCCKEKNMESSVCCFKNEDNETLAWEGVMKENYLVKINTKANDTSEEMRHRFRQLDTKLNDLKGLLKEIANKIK
T2 sequence (Q8R4D5 whole entry): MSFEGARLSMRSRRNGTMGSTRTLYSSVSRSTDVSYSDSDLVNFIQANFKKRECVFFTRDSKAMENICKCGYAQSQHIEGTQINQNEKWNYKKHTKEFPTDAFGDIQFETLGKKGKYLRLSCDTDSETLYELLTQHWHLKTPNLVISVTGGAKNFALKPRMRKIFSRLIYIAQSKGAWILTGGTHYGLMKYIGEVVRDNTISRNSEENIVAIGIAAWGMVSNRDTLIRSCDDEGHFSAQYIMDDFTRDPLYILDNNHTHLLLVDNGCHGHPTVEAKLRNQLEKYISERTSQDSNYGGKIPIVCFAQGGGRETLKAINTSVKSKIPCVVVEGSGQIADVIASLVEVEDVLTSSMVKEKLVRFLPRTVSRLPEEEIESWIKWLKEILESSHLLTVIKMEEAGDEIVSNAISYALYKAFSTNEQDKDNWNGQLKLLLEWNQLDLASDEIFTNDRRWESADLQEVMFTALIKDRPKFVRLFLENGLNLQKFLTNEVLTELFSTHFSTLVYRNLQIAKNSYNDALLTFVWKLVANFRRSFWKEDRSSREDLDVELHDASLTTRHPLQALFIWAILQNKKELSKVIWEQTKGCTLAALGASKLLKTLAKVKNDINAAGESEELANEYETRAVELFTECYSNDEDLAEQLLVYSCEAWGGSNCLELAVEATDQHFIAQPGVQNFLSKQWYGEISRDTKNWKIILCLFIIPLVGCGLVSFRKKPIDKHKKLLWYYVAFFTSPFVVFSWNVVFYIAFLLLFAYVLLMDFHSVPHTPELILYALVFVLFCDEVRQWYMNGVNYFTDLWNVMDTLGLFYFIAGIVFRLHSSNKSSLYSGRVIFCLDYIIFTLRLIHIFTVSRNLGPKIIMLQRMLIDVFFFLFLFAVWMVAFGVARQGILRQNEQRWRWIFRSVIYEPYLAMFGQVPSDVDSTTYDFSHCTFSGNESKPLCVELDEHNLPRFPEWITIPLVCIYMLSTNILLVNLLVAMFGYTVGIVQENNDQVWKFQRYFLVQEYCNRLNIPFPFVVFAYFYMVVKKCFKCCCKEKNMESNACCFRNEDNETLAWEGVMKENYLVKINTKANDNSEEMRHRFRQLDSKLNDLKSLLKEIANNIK

What is called IC50 is the concentration that gives 50% inhibition. The Hill coefficient is the slope factor of the fitted curve. Consider `O=C(COC(=O)c1ccccc1-c1ccccc1)NC12CC3CC(CC(C3)C1)C2` [Compound 23, 2‐((3S,5S,7S)‐adamantan‐1‐ylamino)‐2‐oxoethyl [1,1′‐biphenyl]‐2‐carboxylate], for which the “Activity (agonist/antagonist)” value in experiment [1] (hTRPM8-HEK293, agonism = compound-induced Ca2+ influx, antagonism = modulation of WS-12-induced Ca2+ influx) is “Antagonist”. The IC50 in experiment [1] (hTRPM8-HEK293, block of half channel activity evoked by WS-12, mean ± SD, N = 3, read-out: IC50) amounted to 200 nM; in experiment [2], 430 ± 750 nM. In addition, in experiment [1] (hTRPM8-HEK293 Ca2+ microfluorimetry dose-response, mean ± SD), the Hill coefficient is given as 0.5 ± 0.9.
